Patent publication US6962894B1, “Herbicidal composition” (Syngenta Crop Protection, Inc., priority 1999, dated 2005)

What was measured:
Test in all cases: Post-emergence greenhouse pot test, herbicide alone and with safener
Assay type in all cases: in vivo
Agrostis spica-venti = settings: 10 days after application
Experimental: (§1) The test plants are grown in pots under greenhouse conditions until a post-application stage. A standard soil is used as the cultivation substrate. At a post-emergence stage, the herbicides, both alone and in admixture with safeners, are applied to the test plants or to cultivated plants of which the seeds were dressed with safeners. Application is carried out using an emulsion prepared from a 25% emulsifiable concentrate (Example F1, b)) of the test substances using 500 l of water/ha. The rates of application are matched to the optimum dosages determined under field or greenhouse conditions. Evaluation of the tests is carried out after 9, 10, 20 and 24 days (100% action=complete destruction; 0% action=no phytotoxic action).

Alopecurus myosuroides = settings: 10 days after application
Experimental: as §1

Lolium rigidum = test system: Lolium rigidum
Experimental: as §1

hard wheat = test system: hard wheat
Experimental: as §1

summer wheat = test system: summer wheat
Experimental: as §1

winter barley = settings: 10 days after application
Experimental: as §1

winter wheat = settings: 10 days after application
Experimental: as §1

[1] = 20 days after application, herbicide alone 60 g a.i./ha
[2] = 20 days after application, herbicide alone 125 g a.i./ha
[3] = 20 days after application, herbicide alone 250 g a.i./ha
[4] = 9 days after application, herbicide alone 60 g a.i./ha
[5] = 9 days after application, herbicide alone 125 g a.i./ha
[6] = 9 days after application, herbicide alone 250 g a.i./ha

CCc1cc(C)cc(CC)c1C1C(=O)N2CCOCCN2C1=O [herbicide no. I1, 8-(2,6-diethyl-4-methylphenyl)tetrahydropyrazolo[1,2-d][1,4,5]-oxadiazepine-7,9-dione]
action (100% = complete destruction; 0% = no phytotoxic action) (Agrostis spica-venti; herbicide alone 15 g a.i./ha): 70% | action (100% = complete destruction; 0% = no phytotoxic action) (Agrostis spica-venti; herbicide alone 30 g a.i./ha): 70% | action (100% = complete destruction; 0% = no phytotoxic action) (Agrostis spica-venti; herbicide alone 60 g a.i./ha): 80% | action (100% = complete destruction; 0% = no phytotoxic action) (Agrostis spica-venti; herbicide alone 125 g a.i./ha): 80% | action (100% = complete destruction; 0% = no phytotoxic action) (Alopecurus myosuroides; herbicide alone 15 g a.i./ha): 50% | action (100% = complete destruction; 0% = no phytotoxic action) (Alopecurus myosuroides; herbicide alone 30 g a.i./ha): 80% | action (100% = complete destruction; 0% = no phytotoxic action) (Alopecurus myosuroides; herbicide alone 60 g a.i./ha): 80% | action (100% = complete destruction; 0% = no phytotoxic action) (Alopecurus myosuroides; herbicide alone 125 g a.i./ha): 90% | action (100% = complete destruction; 0% = no phytotoxic action) (Lolium rigidum; 10 days after application, herbicide alone 15 g a.i./ha): 60% | action (100% = complete destruction; 0% = no phytotoxic action) (Lolium rigidum; 10 days after application, herbicide alone 30 g a.i./ha): 60% | action (100% = complete destruction; 0% = no phytotoxic action) (Lolium rigidum; 10 days after application, herbicide alone 60 g a.i./ha): 60% | action (100% = complete destruction; 0% = no phytotoxic action) (Lolium rigidum; 10 days after application, herbicide alone 125 g a.i./ha): 80% | action (100% = complete destruction; 0% = no phytotoxic action) (Lolium rigidum; [1]): 95% | action (100% = complete destruction; 0% = no phytotoxic action) (Lolium rigidum; [2]): 100% | action (100% = complete destruction; 0% = no phytotoxic action) (Lolium rigidum; [3]): 100% | action (100% = complete destruction; 0% = no phytotoxic action) (hard wheat; [4]): 55% | action (100% = complete destruction; 0% = no phytotoxic action) (hard wheat; [5]): 60% | action (100% = complete destruction; 0% = no phytotoxic action) (hard wheat; [6]): 60% | action (100% = complete destruction; 0% = no phytotoxic action) (hard wheat; [1]): 20% | action (100% = complete destruction; 0% = no phytotoxic action) (hard wheat; [2]): 30% | action (100% = complete destruction; 0% = no phytotoxic action) (hard wheat; [3]): 45% | action (100% = complete destruction; 0% = no phytotoxic action) (summer wheat; [4]): 60% | action (100% = complete destruction; 0% = no phytotoxic action) (summer wheat; [5]): 60% | action (100% = complete destruction; 0% = no phytotoxic action) (summer wheat; [6]): 60% | action (100% = complete destruction; 0% = no phytotoxic action) (summer wheat; [1]): 20% | action (100% = complete destruction; 0% = no phytotoxic action) (summer wheat; [2]): 40% | action (100% = complete destruction; 0% = no phytotoxic action) (summer wheat; [3]): 50% | action (100% = complete destruction; 0% = no phytotoxic action) (winter barley; herbicide alone 15 g a.i./ha): 0% | action (100% = complete destruction; 0% = no phytotoxic action) (winter barley; herbicide alone 30 g a.i./ha): 0% | action (100% = complete destruction; 0% = no phytotoxic action) (winter barley; herbicide alone 60 g a.i./ha): 0% | action (100% = complete destruction; 0% = no phytotoxic action) (winter barley; herbicide alone 125 g a.i./ha): 0% | action (100% = complete destruction; 0% = no phytotoxic action) (winter wheat; herbicide alone 15 g a.i./ha): 0% | action (100% = complete destruction; 0% = no phytotoxic action) (winter wheat; herbicide alone 30 g a.i./ha): 5% | action (100% = complete destruction; 0% = no phytotoxic action) (winter wheat; herbicide alone 60 g a.i./ha): 10% | action (100% = complete destruction; 0% = no phytotoxic action) (winter wheat; herbicide alone 125 g a.i./ha): 20%
